These results are taken from ChEMBL document CHEMBL5303573, “Mapping human microbiome drug metabolism by gut bacteria and their genes” (Nature, 2019).

Data set [1] in a line: The drug is tested on Bifidobacterium breve strain: DSM20213 for biotransformation. The drug concentrations were measured before and after a 12-h incubation by liquid-chromatography-coupled mass spectrometry (LC–MS). The following applies: 2 µM.
Data set [2] in a line: The drug is tested on Bifidobacterium longum subsp. Infantis strain: CCUG52486 for biotransformation. The drug concentrations were measured before and after a 12-h incubation by liquid-chromatography-coupled mass spectrometry (LC–MS). The note with it: 2 µM.
Data set [3] is described as follows: The drug is tested on Bifidobacterium ruminantium strain: fecal isolate for biotransformation. The drug concentrations were measured before and after a 12-h incubation by liquid-chromatography-coupled mass spectrometry (LC–MS). The following applies: 2 µM.
Data set [4] in a line: The drug is tested on Collinsella aerofaciens strain: ATCC25986 for biotransformation. The drug concentrations were measured before and after a 12-h incubation by liquid-chromatography-coupled mass spectrometry (LC–MS). The following applies: 2 µM.
Data set [5] is described as follows: The drug is tested on Bacteroides dorei strain: DSM17855 for biotransformation. The drug concentrations were measured before and after a 12-h incubation by liquid-chromatography-coupled mass spectrometry (LC–MS). The following applies: phocaeicola dorei, 2 µM.
Data set [6] is described as follows: The drug is tested on Bacteroides ovatus strain: ATCC8483 for biotransformation. The drug concentrations were measured before and after a 12-h incubation by liquid-chromatography-coupled mass spectrometry (LC–MS). The note with it: 2 µM.
The nature of data set [7]: The drug is tested on Clostridium asparagiforme strain: DSM15981 for biotransformation. The drug concentrations were measured before and after a 12-h incubation by liquid-chromatography-coupled mass spectrometry (LC–MS). The class given is ADME. Also noted: dose 2 uM, timepoint 0 vs 12 hours. The note with it: enterocloster asparagiformis, 2 µM.
Data set [8] is described as follows: The drug is tested on Clostridium scindens strain: ATCC35704 for biotransformation. The drug concentrations were measured before and after a 12-h incubation by liquid-chromatography-coupled mass spectrometry (LC–MS). The note with it: 2 µM.
Data set [9] is described as follows: The drug is tested on Eubacterium hallii strain: DSM3353 for biotransformation. The drug concentrations were measured before and after a 12-h incubation by liquid-chromatography-coupled mass spectrometry (LC–MS). The note with it: anaerobutyricum hallii, 2 µM.
Data set [10] in a line: The drug is tested on Eubacterium ventriosum strain: ATCC27560 for biotransformation. The drug concentrations were measured before and after a 12-h incubation by liquid-chromatography-coupled mass spectrometry (LC–MS). The class given is ADME. Set-up: dose 2 uM, timepoint 0 vs 12 hours. The note with it: 2 µM.
The nature of data set [11]: The drug is tested on Ruminococcus lactaris strain: ATCC29176 for biotransformation. The drug concentrations were measured before and after a 12-h incubation by liquid-chromatography-coupled mass spectrometry (LC–MS). The following applies: 2 µM.
A short description of data set [12]: The drug is tested on Ruminococcus torques strain: ATCC27756 for biotransformation. The drug concentrations were measured before and after a 12-h incubation by liquid-chromatography-coupled mass spectrometry (LC–MS). The class given is ADME. Also noted: dose 2 uM, timepoint 0 vs 12 hours. The following applies: 2 µM.
For data set [13] the following is noted: bifidobacterium adolescentis, 12 h, 2 µM.
Description: The drug is tested on Bifidobacterium adolescentis strain: ATCC 15703 for biotransformation. The drug concentrations were measured before and after a 12-h incubation by liquid-chromatography-coupled mass spectrometry (LC–MS)
The conditions of data set [14]: bacteroides fragilis, 12 h, 2 µM.
Description: The drug is tested on Bacteroides fragilis strain: NCTC 9343 for biotransformation. The drug concentrations were measured before and after a 12-h incubation by liquid-chromatography-coupled mass spectrometry (LC–MS)
For data set [15] the following is noted: roseburia intestinalis, 12 h, 2 µM.
Description: The drug is tested on Roseburia intestinalis strain: L1-82 for biotransformation. The drug concentrations were measured before and after a 12-h incubation by liquid-chromatography-coupled mass spectrometry (LC–MS)
A short description of data set [16]: The drug is tested on Blautia luti strain: DSM14534 for biotransformation. The drug concentrations were measured before and after a 12-h incubation by liquid-chromatography-coupled mass spectrometry (LC–MS). The class given is ADME. Set-up: dose 2 uM, timepoint 0 vs 12 hours. The following applies: 2 µM.
Data set [17] is described as follows: The drug is tested on Clostridium sporogenes strain: ATCC15579 for biotransformation. The drug concentrations were measured before and after a 12-h incubation by liquid-chromatography-coupled mass spectrometry (LC–MS). The note with it: 2 µM.
For data set [18] the following is noted: bacteroides fragilis, 12 h, 2 µM. This is another data set of the same source.
Description: The drug is tested on Bacteroides fragilis strain: 3397 (T10) for biotransformation. The drug concentrations were measured before and after a 12-h incubation by liquid-chromatography-coupled mass spectrometry (LC–MS)
The conditions of data set [19]: bacteroides thetaiotaomicron, 12 h, 2 µM.
Description: The drug is tested on Bacteroides thetaiotaomicron strain: 3731 for biotransformation. The drug concentrations were measured before and after a 12-h incubation by liquid-chromatography-coupled mass spectrometry (LC–MS)

In the case of `CCCc1nc2c(C)cc(-c3nc4ccccc4n3C)cc2n1Cc1ccc(-c2ccccc2C(=O)O)cc1`, the “Bacterial Biotransformation” value in [1] was “Compound NOT metabolized”; in data set [2], “Compound NOT metabolized”; in [3], “Compound NOT metabolized”; in data set [4] it was “Compound NOT metabolized”; in data set [5], “Compound metabolized”; in data set [6], “Compound metabolized”. Further, the “Bacterial Biotransformation” value in data set [7], in data set [8], in data set [9], in data set [10], in data set [11] and in data set [12] was “Compound NOT metabolized” in each case. Further, the “Bacterial Biotransformation” value in [13] was “Compound NOT metabolized”; in [14] it was “Compound metabolized”; in data set [15], “Compound NOT metabolized”.

On to `CCCCCCOC(=O)/N=C(/N)c1ccc(NCc2nc3cc(C(=O)N(CCC(=O)OCC)c4ccccn4)ccc3n2C)cc1.CS(=O)(=O)O` [DABIGATRAN ETEXILATE MESYLATE], for which the “Bacterial Biotransformation” value in [2], in data set [3], in data set [4], in data set [5], in [6] and in [16] was “Compound NOT metabolized” in each case. The “Bacterial Biotransformation” value in data set [7], in data set [8], in [17], in data set [9], in [10] and in data set [11] was “Compound NOT metabolized” in each case. Moreover, the “Bacterial Biotransformation” value in [13], in data set [14], in data set [18] and in data set [15] was “Compound NOT metabolized” in each case.

For `C[C@@H](CO)NC(=O)[C@@H]1C=C2c3cccc4[nH]cc(c34)C[C@H]2N(C)C1.O=C(O)/C=C\C(=O)O` [ERGONOVINE MALEATE], the “Bacterial Biotransformation” value is “Compound metabolized” in [2]; “Compound NOT metabolized” in data set [3]; “Compound metabolized” in data set [4]; “Compound metabolized” in data set [5]; “Compound metabolized” in data set [6]; “Compound NOT metabolized” in data set [16]. Also, the “Bacterial Biotransformation” value is on record as “Compound metabolized” in data set [7]; “Compound metabolized” in [8]; “Compound NOT metabolized” in [10]; “Compound metabolized” in [11]; “Compound NOT metabolized” in data set [12]; “Compound metabolized” in data set [14]. Further, the “Bacterial Biotransformation” value was “Compound metabolized” in [18], “Compound NOT metabolized” in data set [19] and “Compound NOT metabolized” in data set [15].

`N=C(N)NC(=O)Cc1c(Cl)cccc1Cl` [GUANFACINE]: the “Bacterial Biotransformation” value in [2], in [3], in [4], in data set [5], in data set [6] and in [16] was “Compound NOT metabolized” throughout. For the same compound, the “Bacterial Biotransformation” value in data set [7], in data set [17], in [9], in data set [11], in [12] and in data set [13] was “Compound NOT metabolized” each time. In addition, the “Bacterial Biotransformation” value in data set [14], in data set [18] and in data set [15] was “Compound NOT metabolized” each time.

Regarding `CS(=O)(=O)O.OC(CCN1CCCCC1)(c1ccccc1)c1ccccc1` [PRIDINOL METHANESULFONATE], the “Bacterial Biotransformation” value in data set [1], in data set [2], in data set [3], in data set [4], in data set [5] and in data set [6] was “Compound NOT metabolized” each time. For the same compound, the “Bacterial Biotransformation” value in data set [16], in data set [7], in data set [8], in [17], in [9] and in data set [10] was “Compound NOT metabolized” throughout. Moreover, the “Bacterial Biotransformation” value in data set [11], in [12], in data set [13], in [14], in [18] and in [19] was “Compound NOT metabolized” throughout. Further, the “Bacterial Biotransformation” value in data set [15] is listed as “Compound NOT metabolized”.

As for `CN[C@H]1CC[C@@H](c2ccc(Cl)c(Cl)c2)c2ccccc21` [SERTRALINE], the “Bacterial Biotransformation” value in [1], in data set [2], in [3], in data set [4], in data set [5] and in data set [6] was “Compound NOT metabolized” in each case. Also, the “Bacterial Biotransformation” value in data set [16], in data set [7], in [8], in [17], in [9] and in [11] was “Compound NOT metabolized” throughout. The “Bacterial Biotransformation” value in data set [12], in data set [13], in data set [14], in data set [18] and in data set [19] was “Compound NOT metabolized” throughout.

Regarding `CC(C)NCC(O)c1ccc(NS(C)(=O)=O)cc1` (centres undefined) [SOTALOL], the “Bacterial Biotransformation” value is reported as “Compound NOT metabolized” in data set [1]; “Compound NOT metabolized” in data set [2]; “Compound NOT metabolized” in data set [3]; “Compound NOT metabolized” in data set [4]; “Compound metabolized” in data set [6]; “Compound NOT metabolized” in [16]. Besides, the “Bacterial Biotransformation” value in [7], in [8], in [17], in data set [9], in data set [11] and in data set [12] was “Compound NOT metabolized” in each case. In addition, the “Bacterial Biotransformation” value in [13] is reported as “Compound NOT metabolized”; in data set [14] it was “Compound NOT metabolized”; in [18], “Compound metabolized”; in [19] it was “Compound NOT metabolized”; in data set [15], “Compound NOT metabolized”.
